Data published in article PMC11211543, “Molecular mimicry of SARS-COV-2 antigens as a possible natural anti-cancer preventive immunization” (Frontiers in Immunology, 2024).

Experiments:
[1] = system: CD3+/CD8+ T cells of PBMCs from vaccinated donors; assay type: cell-based, human; conditions: for percentage of circulating reacting CD8+ T cells specific to the homologous TAA epitope, average: TAAs paired to non-spike epitopes; for sum of the reactivities of all subjects for the epitope pair: value of the pair viral epitope/TAA; for percentage of circulating reacting CD8+ T cells specific to the spike peptide, average: PBMCs from 7 vaccinated donors stimulated ex vivo 3 days with the Spike peptide, Dextramer loaded with the same viral peptide
[2] = system: CD3+/CD8+ T cells of PBMCs from healthy vaccinated donors; test: pMHC multimer (tetramer) T cell staining; assay type: cell-based, human; conditions: MHC-class I tetramer staining
[3] = system: PBMCs from HLA-A*02:01–positive individuals; test: IFN-γ ELISpot assay; assay type: cell-based, human; conditions: 10 μg/mL peptide, 3×10^5 PBMCs per well, 20 hours, 37°C; SFU per 10^6 PBMCs; mean of subjects, triplicate tests averaged
[4] = system: CD8+ T cell; conditions: 59 Spike epitopes, different HLA alleles; cited from earlier work
Text: We have recently assessed T cell reactivity against 59 epitopes predicted in the Spike protein associated to different HLA alleles, covering both the S1 and S2 subunits. In particular, 11 were associated with the HLA-A*02:01 and only three were located in the S1 subunit, namely […] at position 62 and […] at position 269 in the NTD region; […] at position 512 in the RBD region.

ALLALTSAV [reference compound]
percentage of circulating reacting CD8+ T cells specific to the homologous TAA epitope, average [1]: 1.34% | sum of the reactivities of all subjects for the epitope pair [1]: > 9 % of the total circulating T cells

FVGEFFTDV [reference compound]
percentage of circulating reacting CD8+ T cells specific to the homologous TAA epitope, average [1]: 0.36%

HLMSFPQSA
percentage of circulating reacting CD8+ T cells specific to the spike peptide, average [1]: 0.8%

KIADYNYKL [Wuhan, Alpha, Delta]
percentage of circulating CD8+ T cells specific for the peptide, average [2]: 0,18% | IFN-γ ELISpot, average over subjects [3]: 9.8 SFU

KLLEEWNLV
sum of the reactivities of all subjects for the epitope pair [1]: ~ 6 % of the total circulating T cells

LTDEMIAQY [reference compound]
IFN-γ ELISpot, average over subjects [3]: 10.8 SFU

NYNYLYRLF [reference compound]
immunodominance of CD8+ T cell memory response [4]: strongest immunodominance

RLLQETELV [reference compound]
sum of the reactivities of all subjects for the epitope pair [1]: ~ 6 % of the total circulating T cells

VLLSMQGAV
sum of the reactivities of all subjects for the epitope pair [1]: > 9 % of the total circulating T cells

VLNDIFSRL
percentage of circulating reacting CD8+ T cells specific to the spike peptide, average [1]: 1.04%

YLQPRTFLL
percentage of circulating CD8+ T cells specific for the peptide, average [2]: 1,23% | IFN-γ ELISpot, average over subjects [3]: 87.9 SFU | immunodominance of CD8+ T cell memory response [4]: strongest immunodominance
